Consider 17 compounds from PubChem BioAssay (NCI).

Common to all, as to test: NCI-60 cell line screen, 48 h
In test [1] the test system is ACHN renal.
Test [2] concerns CAKI-1 renal.
The test system of test [3] is OVCAR-3 ovarian.
Test [4] relates to NCI-H226 lung.
Test [5] deals with HL-60(TB) leukemia.
Test [6] relates to MDA-MB-435.
For test [7], the system named is TK-10 renal.
Test [8] deals with A549 NSCLC.
Test [9] concerns MOLT-4 leukemia.
For test [10], the system named is HCT-116 colon.

“And” between values parts separate entries of the source, which are not always exact repeats. Equal entries are not always repeated.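 Where inhibition never reached the appropriate level, the endpoint shown equals the highest concentration tested. Otherwise, values were interpolated linearly from a five-concentration, 48-hour dose response in 96-well plates. GI50 = concentration required for 50% inhibition of growth. At the TGI there is no net growth.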

In the case of `Cc1cc(NCc2cc(Nc3ccnc4cc(Cl)ccc34)ccc2F)nc(N2CCN(C)CC2)n1`, the GI50 in test [1] is 2.16 µM; in test [2], 1.67 µM; in test [3], 1.76 µM; in [4] it was 2.22 µM; in test [5] it was 1.68 µM; in test [6], 1.52 µM. Further, the GI50 in test [7] is 2.03 µM; in [8] it was 3.07 µM; in [9], 1.39 µM; in test [10], 1.25 µM. Also, the TGI in [1] was 5.38 µM; in [2], 4 µM; in [3], 3.83 µM; in test [4] it was 5.5 µM; in test [5], 3.67 µM; in test [6] it was 2.96 µM. Also, the TGI in test [7] came to 5.49 µM; in [8], 10.9 µM; in test [9], 8.17 µM; in [10], 2.88 µM.
For `COc1ccccc1N1CCN(CCc2c[nH]c3cc4c(cc23)OCO4)CC1`, the GI50 in test [1] is 21.3 µM; in test [2], 18.5 µM; in test [3] it was 30.2 µM; in test [4], 29.9 µM; in [5], 10.4 µM; in [6], 14 µM. The GI50 is 27.1 µM in test [7], 31 µM in test [8], 38.8 µM in [9] and 10.9 µM in test [10]. Also, the TGI is over 100 µM in [1]; 60.8 µM in test [2]; over 100 µM in test [3]; over 100 µM in test [4]; over 100 µM in test [5]; 52.3 µM in test [6]. The TGI in test [7], in test [8], in test [9] and in test [10] was over 100 µM each time.
Turning to `COc1cc(Cl)cc(-c2nn(-c3cccc(NC(=O)Nc4cc(C(F)(F)F)cc(C(F)(F)F)c4)c3)cc2-c2ccncc2)c1`, the GI50 was 0.401 µM in test [1]; 0.426 µM in test [2]; 0.364 µM in test [3]; 0.965 µM in [4]; 0.32 µM in test [5]; 0.684 µM in test [6]. The GI50 in [7] is 0.684 µM; in test [8], 0.386 µM; in test [9] it was 0.33 µM; in test [10], 0.356 µM. Besides, the TGI in test [1] came to 12.7 µM; in test [2] it was 4.4 µM; in [3] it was 2.04 µM; in test [4] it was 7.67 µM; in test [5], 2.49 µM; in test [6], 2.62 µM. For the same compound, the TGI in test [7] was 14.6 µM; in [8] it was 5.62 µM; in [9], 1.92 µM; in test [10], 1.46 µM.
Take `COc1cc(NC(=O)CSc2nc3ccc(C)cc3c(=O)n2Cc2ccccc2)cc(OC)c1OC`: the GI50 is 3.49 µM in [1]; 5.08 µM in test [2]; 9.36 µM in test [3]; 3.2 µM in test [4]; over 100 µM in [5]; 9.55 µM in [6]. For the same compound, the GI50 in test [7] was 5.58 µM; in [8] it was 10.5 µM; in [9], over 100 µM; in test [10], 3.38 µM. Further, the TGI in test [1] was over 100 µM; in [2], over 100 µM; in test [3], over 100 µM; in test [4], 22.3 µM; in [5], over 100 µM; in test [6] it was over 100 µM. The TGI in [7] is 92.3 µM; in test [8], over 100 µM; in [9] it was over 100 µM; in [10] it was over 100 µM.
In the case of `CC(=O)OCC(=O)[C@@]12OC(C)(C)O[C@@H]1C[C@H]1[C@@H]3CC=C4C[C@@H](O)CC[C@]4(C)[C@H]3CC[C@@]12C`, the TGI in [1], in [2], in test [3], in test [4], in test [5] and in [6] was over 100 µM throughout. Besides, the TGI in [7], in test [8], in test [9] and in test [10] was over 100 µM throughout.
With `O=C1C2C(c3ccccc3)NC(c3ccccc3)C1C(c1ccccc1)NC2c1ccccc1` (centres undefined), the TGI in test [1], in test [2], in test [3], in test [4], in [5] and in test [6] was over 100 µM each time. Also, the TGI in test [7], in [8], in test [9] and in test [10] was over 100 µM in each case.
Regarding `COc1cccc(OCCCN)c1-c1cc(Nc2cnc(C#N)cn2)n[nH]1`, the GI50 in test [1] was 0.00332 µM; in test [2], 0.405 µM and 0.0455 µM; in [3], 0.00761 µM and < 0.0155 µM; in [4], 2.23 µM; in [5] it was 0.00877 µM and 0.0231 µM; in test [6] it was 0.00423 µM. In addition, the GI50 in [7] was 0.0065 µM; in [8], 0.035 µM and 0.0452 µM; in [9], 0.00391 µM; in test [10], 0.105 µM and 0.236 µM. Besides, the TGI in test [1] was determined as 0.0146 µM; in test [2] it was 11.9 µM; in test [3] it was 11.4 µM; in test [4] it was 8.39 µM; in test [5], 1.14 µM; in test [6], 1.23 µM. The TGI in [7] is 0.417 µM; in test [8] it was 15.1 µM; in test [9], 5.69 µM; in test [10], 12.9 µM.
With `COc1ccc(C(=O)/C=C/c2ccc3c(c2)OCO3)c(OCc2ccccc2)c1`, the TGI is over 100 µM in test [1]; over 100 µM in [2]; over 100 µM in test [3]; over 100 µM in test [4]; 6.47 µM in [5]; over 100 µM in [6]. In addition, the TGI was over 100 µM in test [7], over 100 µM in test [8], over 26.4 µM in test [9] and over 100 µM in test [10].
Take `O=C(O)C1C(C(=O)O)C23CC2(C(=O)O)C2(C(=O)O)CCC3=C3CCCC312` (centres undefined): the TGI in test [1] is 59.2 µM; in [2], 81.9 µM; in test [3], 11.7 µM; in [4] it was 27.5 µM; in test [5] it was 18.3 µM; in test [6], 49.8 µM. The TGI in test [7] is 38.1 µM; in [8], over 100 µM; in test [9] it was 30.2 µM; in test [10], 66.7 µM.
For the compound `N#CC1=C(N)Oc2c(sc3c(Br)cccc23)C1c1ccc(Br)cc1` (centres undefined), the GI50 in [1] was 0.912 µM; in test [2] it was 1.97 µM; in test [3], 0.307 µM; in [4] it was 4.28 µM; in [5], 0.28 µM; in [6], 0.109 µM. In addition, the GI50 in test [7] was 0.986 µM; in test [8], 0.424 µM; in [9] it was 0.546 µM; in [10], 0.407 µM. The TGI amounted to 9.37 µM in test [1]; 22.2 µM in test [2]; 1.15 µM in test [3]; 20.2 µM in test [4]; 0.788 µM in [5]; 0.46 µM in test [6]. Moreover, the TGI in test [7] is 2.57 µM; in [8], 2.23 µM; in [9], 8.11 µM; in test [10], 1.84 µM.
On to `OC(CNCC1CCCO1)Cn1c2ccc(Cl)cc2c2cc(Cl)ccc21` (centres undefined), for which the GI50 in test [1] is 1.68 µM; in test [2], 1.54 µM; in test [3], 1.82 µM; in test [4] it was 2.42 µM; in test [5], 2.3 µM; in test [6], 1.66 µM. The GI50 is 2.05 µM in test [7], 1.87 µM in test [8], 2.09 µM in test [9] and 1.73 µM in test [10]. Moreover, the TGI in [1] stood at 3.16 µM; in test [2] it was 3 µM; in test [3] it was 3.28 µM; in test [4], 8.1 µM; in test [5], 5.51 µM; in test [6], 3.02 µM. Moreover, the TGI was found to be 3.75 µM in [7], 3.69 µM in [8], 4.65 µM in test [9] and 3.12 µM in test [10].
As for `CCN(CC)CCn1c2ccccc2c(=O)c2c(O)ccc(O)c21`, the TGI was 57.8 µM in test [1]; 61.5 µM in [2]; 47.6 µM in [3]; over 56.2 µM in test [4]; 46.8 µM in test [5]; 33.4 µM in test [6]. Moreover, the TGI in test [7] was 49.2 µM; in test [8], over 100 µM; in [9], 69.3 µM; in [10], 58.6 µM.
Consider `CC(C)COCC(CN(Cc1ccccc1)c1ccccc1)N1CCCC1` (centres undefined), for which the GI50 in test [1] is 4.99 µM; in test [2] it was 3.25 µM; in test [3], 3.15 µM; in [4], 2.28 µM; in [5], 3.09 µM; in test [6], 3.46 µM. In addition, the GI50 in [7] was 3.43 µM; in test [8] it was 3.48 µM; in test [9], 3.61 µM; in [10], 2.52 µM. Moreover, the TGI was determined as 17 µM in [1]; 13.7 µM in test [2]; 12.1 µM in test [3]; 9.48 µM in test [4]; 7.56 µM in test [5]; 13.8 µM in [6]. The TGI was found to be 12 µM in [7], 13.5 µM in [8], 13.1 µM in [9] and 10.4 µM in test [10].
In the case of `O=C(c1ccccc1)C(Br)C(Br)c1cccc([N+](=O)[O-])c1` (centres undefined), the GI50 was 1.46 µM in [1]; 1.76 µM in test [2]; 1.61 µM in [3]; 1.74 µM in [4]; 2.04 µM in test [5]; 2.52 µM in test [6]. For the same compound, the GI50 in [7] was 2.81 µM; in [8], 14.3 µM; in test [9] it was 2.09 µM; in [10] it was 0.864 µM. Besides, the TGI in [1] was found to be 2.77 µM; in [2] it was 3.58 µM; in [3] it was 2.96 µM; in test [4], 3.46 µM; in test [5], 4.68 µM; in test [6], 7.19 µM. Also, the TGI came to 8.31 µM in test [7], 32.3 µM in test [8], 5.39 µM in test [9] and 2.08 µM in test [10].
On to `CC(C)c1c(O)ccc2c1CCC1C(C)(C)CCCC21C` (centres undefined), for which the TGI turned out to be 30.8 µM in [1]; 31.7 µM in test [2]; 34.1 µM in test [3]; 33.6 µM in [4]; 52.3 µM in [5]; 38.5 µM in test [6]. Also, the TGI was determined as 35.8 µM in [7], 31.9 µM in test [8], 43.3 µM in [9] and 31 µM in test [10].
Take `CNCCNc1c2c(c(NCCNC)c3[nH]ccc13)C(=O)c1ccccc1C2=O`: the GI50 in test [1] was 0.0434 µM; in [2], 0.278 µM; in [3] it was 0.174 µM; in [4], 0.215 µM; in test [5], 0.195 µM; in test [6], 0.255 µM. Besides, the GI50 in test [7] is 0.183 µM; in test [8] it was 0.0904 µM; in [9], under 0.0261 µM; in [10], 0.0269 µM. The TGI came out at 0.306 µM in test [1]; 1.15 µM in [2]; 0.887 µM in test [3]; 1.84 µM in [4]; 0.838 µM in test [5]; 1.47 µM in test [6]. The TGI in [7] is 0.502 µM; in test [8] it was 0.427 µM; in test [10], 0.498 µM.
In the case of `Cc1cc(=O)[nH]c2cc3c(c4c(n3Cc3ccc(Cl)cc3Cl)CC(C)(C)CC4=O)c(O)c12`, the GI50 was over 100 µM in [1]; over 100 µM in test [2]; over 100 µM in test [3]; over 100 µM in [4]; over 100 µM in test [5]; 57.4 µM in [6]. The GI50 is over 100 µM in test [7], 46.3 µM in test [8], over 100 µM in test [9] and over 100 µM in test [10]. Further, the TGI in test [1], in test [2], in test [3], in test [4], in test [5] and in [6] was over 100 µM throughout. Besides, the TGI in [7], in test [8], in [9] and in [10] was over 100 µM each time.
